Experimental data as given in ChEMBL document CHEMBL3882724 (2013).

Tests used:
[1] = molecular target: T1, Steroid 17-alpha-hydroxylase/17,20 lyase (Homo sapiens, UniProt P05093); test: Inhibition of CYP17 in human testicular microsomes using 17alpha-hydroxypregnenolone as substrate assessed as decrease in DHEA levels at 10 nM after 90 mins by ELISA relative to control; design: species or system Testis; settings: 1.5 h
T1 sequence (P05093 whole entry): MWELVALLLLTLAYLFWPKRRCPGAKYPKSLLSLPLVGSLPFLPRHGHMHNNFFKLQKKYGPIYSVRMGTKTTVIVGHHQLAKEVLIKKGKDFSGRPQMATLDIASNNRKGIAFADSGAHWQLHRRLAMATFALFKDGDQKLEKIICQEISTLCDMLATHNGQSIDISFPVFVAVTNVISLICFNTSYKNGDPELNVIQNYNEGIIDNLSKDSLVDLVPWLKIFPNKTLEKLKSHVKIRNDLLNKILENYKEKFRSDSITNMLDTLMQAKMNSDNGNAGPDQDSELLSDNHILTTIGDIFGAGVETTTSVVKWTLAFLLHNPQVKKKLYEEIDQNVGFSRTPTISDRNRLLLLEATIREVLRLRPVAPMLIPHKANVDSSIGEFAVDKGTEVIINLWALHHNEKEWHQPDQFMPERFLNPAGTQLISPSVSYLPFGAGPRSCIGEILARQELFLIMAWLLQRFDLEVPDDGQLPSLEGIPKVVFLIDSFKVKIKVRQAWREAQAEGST

[2] = Half life in rat liver microsomes at 1 uM by LC-MS/MS analysis
[3] = Half life in human liver microsomes at 1 uM by LC-MS/MS analysis
[4] = molecular target: T1, Steroid 17-alpha-hydroxylase/17,20 lyase; test: Inhibition of CYP17 in human testicular microsomes using 17alpha-hydroxypregnenolone as substrate assessed as decrease in DHEA levels after 90 mins by ELISA; design: species or system Testis
[5] = molecular target: T1, Steroid 17-alpha-hydroxylase/17,20 lyase; test: Inhibition of CYP17 in human H295R cells assessed as decrease in testosterone levels after 24 hrs by ELISA; type: cell-based
[6] = molecular target: T2, CYP21 (steroid 21-hydroxylase) (Homo sapiens, UniProt P08686); test: Inhibition of human CYP21 transfected in HEK293 cells assessed as decrease in conversion of progesterone to 11-deoxycorticosterone preincubated for 5 hrs followed by progesterone addition measured after 20 hrs by ELISA; type: cell-based; design: concentration or dose not given beside the values; settings: HEK293 cells transfected with human CYP21, probe progesterone
T2 sequence (P08686 whole entry): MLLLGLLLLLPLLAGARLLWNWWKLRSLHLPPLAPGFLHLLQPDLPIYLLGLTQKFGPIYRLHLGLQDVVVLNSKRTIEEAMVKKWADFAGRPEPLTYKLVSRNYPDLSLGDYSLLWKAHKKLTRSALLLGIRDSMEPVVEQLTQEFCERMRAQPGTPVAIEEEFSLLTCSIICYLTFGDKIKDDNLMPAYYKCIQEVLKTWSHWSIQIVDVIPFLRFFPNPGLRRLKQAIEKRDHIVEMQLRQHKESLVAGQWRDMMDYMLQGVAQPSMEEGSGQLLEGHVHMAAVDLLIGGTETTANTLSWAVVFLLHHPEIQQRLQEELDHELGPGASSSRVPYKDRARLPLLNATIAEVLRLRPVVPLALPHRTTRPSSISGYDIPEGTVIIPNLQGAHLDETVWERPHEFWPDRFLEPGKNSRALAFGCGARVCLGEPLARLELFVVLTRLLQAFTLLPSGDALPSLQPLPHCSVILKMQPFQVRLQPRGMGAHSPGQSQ

Compound | inhibition at 0.01 µM [1] | half-life at 1 µM [2] | half-life at 1 µM [3] | IC50 [4] | IC50 [5] | inhibition at 20 h [6]
Cc1ccncc1C1=CC=C2[C@@H]3CC=C4C[C@@H](O)CC[C@]4(C)[C@H]3CC[C@]12C |  |  | 1 to 50 min |  | 15 to 100 nM | ≥ 50%
CN(C)CC(=O)O[C@H]1CC[C@@]2(C)C(=CC[C@H]3C4=CC=C(c5cccnc5)[C@@]4(C)CC[C@@H]32)C1 |  |  |  |  | 15 to 100 nM | ≥ 50%
C[C@]12CCCCC1C(O)C[C@@H]1[C@@H]2CC[C@]2(C)C(n3ccnc3)=CC[C@@H]12 (stereo partly specified) | 50 to 80% |  | 1 to 50 min | ≤ 11 nM |  | 
C[C@]12CC[C@H]3[C@@H](CCC45CC4C(O)CC[C@]35C)[C@@H]1CC=C2c1cccnc1 (stereo partly specified) |  |  |  | ≤ 11 nM | ≤ 15 nM | ≥ 50%
Cc1cncc(C2=CC[C@H]3[C@@H]4CC(=O)C5CCCC[C@]5(C)[C@H]4CC[C@]23C)c1 (stereo partly specified) |  | 1 to 10 min | 1 to 10 min | ≤ 11 nM |  | 
CC1C(O)CC[C@@]2(C)C1CC[C@@H]1[C@@H]2CC[C@]2(C)C(c3cccnc3)=CC[C@@H]12 (stereo partly specified) |  |  |  | ≤ 11 nM | ≤ 15 nM | 10 to 50%
C[C@]12CC[C@H]3[C@@H](CC=C4C[C@@H](O)CC[C@@]43C)C1=CC=C2c1cncc(C(F)F)c1 |  |  |  |  | 15 to 100 nM | < 10%
C[C@@]1(O)CC[C@@]2(C)C(CC[C@@H]3[C@@H]2CC[C@]2(C)C(c4cncc(F)c4)=CC[C@@H]32)C1 (stereo partly specified) |  |  | 1 to 50 min | ≤ 11 nM | ≤ 15 nM | 
Cc1cncc(C2=CC[C@H]3[C@@H]4CC(O)C5CCCC[C@]5(C)[C@H]4CC[C@]23C)c1 (stereo partly specified) |  | 1 to 10 min | 1 to 10 min | ≤ 11 nM |  | 
C[C@]12CC[C@H]3[C@@H](CC=C4C[C@@H](O)CC[C@@]43C)C1=CC=C2n1ccnc1 | ≥ 80% |  | ≥ 50 min | ≤ 11 nM |  | 
C[C@]12CCC(F)CC1=CC[C@@H]1[C@@H]2CC[C@]2(C)C(c3cncc(F)c3)=CC[C@@H]12 (stereo partly specified) |  |  | ≥ 50 min | ≤ 11 nM | ≤ 15 nM | 
CC(=O)N[C@@H]1CC[C@@]2(C)C(=CC[C@H]3C4=CC=C(c5cccnc5)[C@@]4(C)CC[C@@H]32)C1 |  |  | 1 to 50 min |  | ≤ 15 nM | ≥ 50%
C[C@]12CC[C@H]3[C@@H](CC[C@H]4C[C@@H](O)CC[C@@]43C)C1=CC=C2c1cccnc1 | ≥ 80% |  | ≥ 50 min | ≤ 11 nM |  | 
C[C@]12CCCCC1=CC[C@@H]1[C@@H]2CC[C@]2(C)C(c3cccnc3)=CC[C@@H]12 | 50 to 80% | 1 to 10 min | 1 to 10 min |  |  | 
C[C@]12CC[C@H]3[C@@H](CC[C@H]4C[C@@H](O)CC[C@@]43C)C1=CC=C2n1ccnn1 |  | 1 to 10 min | 1 to 10 min |  |  | 
CC(C)C(=O)N[C@H]1CC[C@@]2(C)C(CC[C@@H]3[C@@H]2CC[C@]2(C)C(c4cccnc4)=CC[C@@H]32)C1 (stereo partly specified) |  |  | 1 to 50 min |  | ≤ 15 nM | ≥ 50%
COc1cncc(C2=CC[C@H]3[C@@H]4CC(=O)C5CCCC[C@]5(C)[C@H]4CC[C@]23C)c1 (stereo partly specified) |  | 1 to 10 min | 1 to 10 min | ≤ 11 nM |  | 
CC1=C2CC[C@@H]3[C@H](CC[C@]4(C)C(c5cccnc5)=CC[C@@H]34)[C@@]2(C)CCC1=O |  |  |  | ≤ 11 nM | ≤ 15 nM | ≥ 50%

Further lines, with some results ahead:

inhibition at 0.01 µM [1] | half-life at 1 µM [2] | half-life at 1 µM [3] | IC50 [4] | Compound | IC50 [5] | inhibition at 20 h [6]
50 to 80% | 10 to 60 min | 10 to 60 min |  | CCCOc1cncc(C2=CC[C@H]3[C@@H]4CCN5CCCCC[C@]5(C)[C@H]4CC[C@]23C)c1 |  | 
≥ 80% |  | 1 to 50 min | ≤ 11 nM | C[C@]12CCC(=O)CCC1=CC[C@@H]1[C@@H]2CC[C@]2(C)C(n3ccnc3)=CC[C@@H]12 |  | 
≥ 80% | 10 to 60 min | ≥ 50 min | ≤ 11 nM | C[C@]12CCNC(=O)C[C@@H]1CC[C@@H]1[C@@H]2CC[C@]2(C)C(n3ccnc3)=CC[C@@H]12 |  | 
50 to 80% | 1 to 10 min | 1 to 10 min | ≤ 11 nM | Cc1cncc(C2=CC[C@H]3[C@@H]4CCN5C(=O)CCCC[C@]5(C)[C@H]4CC[C@]23C)c1 |  | 
1 to 50% | 1 to 10 min | 1 to 10 min |  | Cc1cncc(C2=CC[C@H]3[C@@H]4CC[C@H]5COC(=O)CC[C@]5(C)[C@H]4CC[C@]23C)c1 |  | 
50 to 80% | 1 to 10 min | 1 to 10 min | ≤ 11 nM | CN1C(=O)COC[C@@]2(C)C1CC[C@@H]1[C@@H]2CC[C@]2(C)C(c3cccnc3)=CC[C@@H]12 (stereo partly specified) |  | 
≥ 80% | 10 to 60 min | ≥ 50 min | ≤ 11 nM | C[C@]12CCNC(=O)C=C1CC[C@@H]1[C@@H]2CC[C@]2(C)C(n3ccnc3)CC[C@@H]12 (stereo partly specified) |  | 
50 to 80% | 10 to 60 min | 10 to 60 min | ≤ 11 nM | C[C@]12CCCCC[C@@H]1CC[C@@H]1[C@@H]2CC[C@]2(C)C(n3ccnc3)=CC[C@@H]12 |  | 
50 to 80% | 10 to 60 min | 10 to 60 min | ≤ 11 nM | Cc1cn(C2=CC[C@H]3[C@@H]4CCC5=CC(=O)NCC[C@]5(C)[C@H]4CC[C@]23C)cn1 |  | 
≥ 80% | 1 to 10 min | 1 to 10 min | ≤ 11 nM | C[C@]12CCOCC[C@@H]1CC[C@@H]1[C@@H]2CC[C@]2(C)C(c3cccnc3)=CC[C@@H]12 |  | 
≥ 80% | 1 to 10 min | 1 to 10 min |  | C[C@]12CCNC(=O)C=C1CC[C@@H]1[C@@H]2CC[C@]2(C)C(n3ncnn3)=CC[C@@H]12 |  | 
50 to 80% | 1 to 10 min | 1 to 10 min | ≤ 11 nM | Cc1cncc(C2=CC[C@H]3[C@@H]4CC[C@H]5COCCC[C@]5(C)[C@H]4CC[C@]23C)c1 |  | 
1 to 50% | 1 to 10 min | 1 to 10 min |  | CCc1cncc(C2=CC[C@H]3[C@@H]4CCN5CCCCC[C@]5(C)[C@H]4CC[C@]23C)c1 |  | 
≥ 80% | 1 to 10 min | 1 to 10 min | ≤ 11 nM | COc1cncc(C2=CC[C@H]3[C@@H]4CCN5C(=O)CCCC[C@]5(C)[C@H]4CC[C@]23C)c1 |  | 
≥ 80% | 1 to 10 min | ≥ 50 min | ≤ 11 nM | C[C@]12CC(=O)C[C@@H]1CC[C@@H]1[C@@H]2CC[C@]2(C)C(n3ccnc3)=CC[C@@H]12 |  | 
≥ 80% | 1 to 10 min | 1 to 10 min | ≤ 11 nM | CCc1cncc(C2=CC[C@H]3[C@@H]4CCN5C(=O)CCCC[C@]5(C)[C@H]4CC[C@]23C)c1 |  | 
50 to 80% | 1 to 10 min | 1 to 10 min | ≤ 11 nM | COc1cncc(C2=CC[C@H]3[C@@H]4CC[C@H]5CCOCC[C@]5(C)[C@H]4CC[C@]23C)c1 |  | 
50 to 80% | 1 to 10 min | 1 to 10 min | ≤ 11 nM | CCOc1cncc(C2=CC[C@H]3[C@@H]4CC[C@H]5COCCC[C@]5(C)[C@H]4CC[C@]23C)c1 |  | 
50 to 80% | 1 to 10 min | 1 to 10 min | ≤ 11 nM | COc1cncc(C2=CC[C@H]3[C@@H]4CC[C@H]5COCCC[C@]5(C)[C@H]4CC[C@]23C)c1 |  | 
≥ 80% | 1 to 10 min | 1 to 10 min | ≤ 11 nM | C[C@]12CCCOCC1CCC1C2CC[C@]2(C)C(c3cccnc3)=CC[C@@H]12 (single isomer, unassigned) |  | 
